Patent US4346103A, “Treatment for arthritis and substances for use in such treatment” (priority 1976, dated 1982)

What was measured:
[1] = cited from earlier work
[2] = adhesion to intestinal mucosa / absorption; type: in vivo; details: rhein found to adhere, should thus be relatively poorly absorbed
[3] = system: NADH-dehydrogenase complex; details: interferes with redox function of NADH-dehydrogenase complex, thus mitochondrial oxidations; cited from earlier work
[4] = treatment of an ALS patient; type: in vivo, human; details: one patient, fairly advanced stage; six months; daily doses increasing up to 150 mg
Description: A human patient suffering from ALS in a fairly advanced stage was treated with diacetylrhein over a period of six months. The diacetylrhein was ingested in daily doses increasing up to 150 mg daily.

[5] = side effects in all clinical trials to date; type: in vivo, human
Text: In all clinical trials carried out to date with diacetylrhein side effects have been unsignificant.

[6] = treatment of osteoarthritis patients; type: in vivo, human; details: one patient, severe osteoarthritis across lower back
Description: (§1) A human patient having severe osteoarthritis (established by X-ray, CSF and rheumatoid factor assessments) across the lower back was treated with diacetylrhein. The patient had greatly restricted torsal rotation and a notable pain in their back and legs after remaining seated for 30 to 60 minutes. The patient was treated by ingesting two daily doses of 50 mg of diacetylrhein.

[7] = clinical trials in MS and ALS patients; type: in vivo, human; details: patients suffering from MS and ALS
Text: Clinical trials are being carried out in which patients suffering from MS and ALS are being treated with diacetylrhein.

[8] = treatment of MS patients; type: in vivo; details: four human patients; two daily doses of 50 mg, ingested
Description: Four human patients suffering from MS were treated with diacetylrhein. They were treated by ingesting two daily doses of 50 mg diacetylrhein.

[9] = human ingestion of diacetylrhein for 15 months, side effects; type: in vivo; details: about 100 mg per day
Description: as §1

[10] = treatment of patients with rheumatoid arthritis of the hands; type: in vivo, human; details: three cases; 50 mg twice daily for between five and ten days
Description: In three cases, patients with rheumatoid arthritis of the hands, having swollen fingers and painful joints, were treated with 50 mg of diacetylrhein, twice daily for between five and ten days.

[11] = acute toxicity trial in mice; type: in vivo; details: 26 mice; doses up to about 3000 mg per kg per day
Description: In an acute toxicity trial, 1,8-diacetoxy-3-carboxyanthraquinone (diacetylrhein) was administered to 26 mice in doses of up to about 3000 mg per kg per day.

[12] = clinical tests on arthritis patients; type: in vivo, human
Text: Clinical tests have been carried out on arthritis patients with extremely encouraging results.

[13] = two daily doses of 50 mg, ingested

Compound	toxicity ([1]; oral ingestion)	side-effects on long-term intake ([1]; taken for long periods of time, in the dosage required)	adhesion to the intestinal mucosa [2]	inhibition of NADH-linked oxidation [3]	deterioration: unsteadiness of gait and weakness of voice [4]	stabilisation of condition [4]	side effects ([5]; all clinical trials carried out to date)	only side effect encountered ([5]; all clinical trials to date, eliminated by reducing the dosage)	condition with continued treatment ([6]; continued treatment)	onset of effect [6, 13]	pain, torsal rotation and early morning stiffness [6, 13]	results of clinical trials [7]	pain and limb unsteadiness [8]	untoward effects [9]	finger thickness (swelling) [10]	pain in the joints [10]	deaths [11]	failure to respond to treatment ([12]; arthritis patients)	need for Charnley Hip Operation ([12]; patients with arthritis of the hip)
O=C(O)c1cc(O)c2c(c1)C(=O)c1cccc(O)c1C2=O [Rhein, 1,8-dihydroxyanthra-quinone-3-carboxylic acid]	relatively non-toxic	without any apparent side-effects	adheres strongly to the intestinal mucosa	inhibitor of NADH-linked oxidation															
CC(=O)Oc1cccc2c1C(=O)c1c(OC(C)=O)cc(C(=O)O)cc1C2=O [diacetylrhein, 1,8-diacetoxy-3-carboxyanthraquinone]					substantially inhibited	substantially stabilised	unsignificant	some diarrhoea	maintained their improved condition	An effect was noted on the fourth and fifth days	became pain free with restored torsal rotation and without early morning stiffness	most encouraging	The pain and a large part of the limb unsteadiness disappeared within seven to ten days of initiating treatment	No untoward effects were noted	The fingers rapidly returned to normal thickness	the pain in the joints disappeared and was absent even when these were submitted to pressure	None of the mice died	There has almost never been a failure to respond to this treatment	sufficient progress for this to be unnecessary
